From ChEMBL document CHEMBL4813930, “Cytotoxic Manoalide-Type Sesterterpenes from the Sponge Luffariella variabilis Collected in the South China Sea” (J Nat Prod, 2021)

How the values were obtained:
L02 = assay: Cytotoxicity against human L02 cells by SRB assay; type: cell-based
ASPC1 = assay: Cytotoxicity against human ASPC1 cells by SRB assay; type: functional, cell-based
[1] = Cytotoxicity against human NCI-H69AR cells by SRB assay; type: functional, cell-based
MDA-MB-231 = assay: Cytotoxicity against human MDA-MB-231 cells by SRB assay; type: functional, cell-based
K562 = assay: Cytotoxicity against human K562 cells by MTT assay; type: functional, cell-based

Row | Compound | IC50 (L02) [µM] | IC50 (ASPC1) [µM] | IC50 [1] [µM] | IC50 (MDA-MB-231) [µM] | IC50 (K562) [µM]
1 | COC(=O)Cc1cc(CC/C=C(\C)CC/C=C(\C)CCC=C(C)C)ccc1O | > 30 | > 30 | > 30 | > 30 | 15
2 | COc1cccc2c1C(=O)c1c(O)c3c(c(O)c1C2=O)C[C@@](O)(C(=O)CO)C[C@@H]3O[C@H]1C[C@H](N)[C@H](O)[C@H](C)O1 [DOXORUBICIN] | < 1 | < 1 | < 1 | < 1 | < 1
